According to US9693556B2, “Herbicidal pyridazinone derivatives” (SYNGENTA LIMITED, priority 2011, dated 2017):

Tests used:
Format in all cases: in vivo
[1] = tested on: Ipomoea hederacea (IPOHE); test: Pre-emergence herbicidal glasshouse test on Ipomoea hederacea; settings: pre-emergence; 1000 g/h; evaluated after 13 days
How it was run: (§1)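 Plants sprayed 1 day (pre-emergence) or 8 days (post-emergence) after sowing with compound at 1000 g/h in acetone/water 50:50 with 0.5% Tween 20; glasshouse 24/16° C, 14 h light, 65% humidity. Damage assessed after 13 days, scored 1–5 (5 = 80-100%, 1 = 0-19%).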

[2] = tested on: Amaranthus retoflexus (AMARE); test: Pre-emergence herbicidal glasshouse test on Amaranthus retoflexus; settings: pre-emergence; 1000 g/h; evaluated after 13 days
How it was run: as §1

Setaria faberi (SETFA) [3] = test: Post-emergence herbicidal glasshouse test on Setaria faberi; settings: post-emergence; 1000 g/h; evaluated after 13 days
How it was run: as §1

[4] = tested on: Echinochloa crus-galli (ECHCG); test: Pre-emergence herbicidal glasshouse test on Echinochloa crus-galli; settings: pre-emergence; 1000 g/h; evaluated after 13 days
How it was run: as §1

Solanum nigrum (SOLNI) [5] = test: Pre-emergence herbicidal glasshouse test on Solanum nigrum; settings: pre-emergence; 1000 g/h; evaluated after 13 days
How it was run: as §1

[6] = tested on: Alopecurus myosuroides (ALOMY); test: Pre-emergence herbicidal glasshouse test on Alopecurus myosuroides; settings: pre-emergence; 1000 g/h; evaluated after 13 days
How it was run: as §1

Setaria faberi (SETFA) [7] = test: Pre-emergence herbicidal glasshouse test on Setaria faberi; settings: pre-emergence; 1000 g/h; evaluated after 13 days
How it was run: as §1

Solanum nigrum (SOLNI) [8] = test: Post-emergence herbicidal glasshouse test on Solanum nigrum; settings: post-emergence; 1000 g/h; evaluated after 13 days
How it was run: as §1

[9] = tested on: Echinochloa crus-galli (ECHCG); test: Post-emergence herbicidal glasshouse test on Echinochloa crus-galli; settings: post-emergence; 1000 g/h; evaluated after 13 days
How it was run: as §1

[10] = tested on: Alopecurus myosuroides (ALOMY); test: Post-emergence herbicidal glasshouse test on Alopecurus myosuroides; settings: post-emergence; 1000 g/h; evaluated after 13 days
How it was run: as §1

[11] = tested on: Ipomoea hederacea (IPOHE); test: Post-emergence herbicidal glasshouse test on Ipomoea hederacea; settings: post-emergence; 1000 g/h; evaluated after 13 days
How it was run: as §1

[12] = tested on: Amaranthus retoflexus (AMARE); test: Post-emergence herbicidal glasshouse test on Amaranthus retoflexus; settings: post-emergence; 1000 g/h; evaluated after 13 days
How it was run: as §1

SMILES: Cn1ncc(-c2ccc(COCC(F)(F)F)cc2S(C)(=O)=O)c(O)c1=O [Compound 2.053]
- PRE Application IPOHE herbicidal damage (five point scale) [1]: 1 (1=0-19% damage)
- PRE Application AMARE herbicidal damage (five point scale) [2]: 5 (5=80-100% damage)
- POST Application SETFA herbicidal damage (five point scale) (Setaria faberi (SETFA) [3]): 2 (2=20-39% damage)
- PRE Application ECHCG herbicidal damage (five point scale) [4]: 5 (5=80-100% damage)
- PRE Application SOLNI herbicidal damage (five point scale) (Solanum nigrum (SOLNI) [5]): 5 (5=80-100% damage)
- PRE Application ALOMY herbicidal damage (five point scale) [6]: 3 (3=40-59% damage)
- PRE Application SETFA herbicidal damage (five point scale) (Setaria faberi (SETFA) [7]): 2 (2=20-39% damage)
- POST Application SOLNI herbicidal damage (five point scale) (Solanum nigrum (SOLNI) [8]): 5 (5=80-100% damage)
- POST Application ECHCG herbicidal damage (five point scale) [9]: 3 (3=40-59% damage)
- POST Application ALOMY herbicidal damage (five point scale) [10]: 3 (3=40-59% damage)
- POST Application IPOHE herbicidal damage (five point scale) [11]: 5 (5=80-100% damage)
- POST Application AMARE herbicidal damage (five point scale) [12]: 5 (5=80-100% damage)

SMILES: C=Cn1ncc(-c2ccccc2S(C)(=O)=O)c(O)c1=O [Compound 2.054]
- PRE Application IPOHE herbicidal damage (five point scale) [1]: 4 (4=60-79% damage)
- PRE Application AMARE herbicidal damage (five point scale) [2]: 5 (5=80-100% damage)
- POST Application SETFA herbicidal damage (five point scale) (Setaria faberi (SETFA) [3]): 5 (5=80-100% damage)
- PRE Application ECHCG herbicidal damage (five point scale) [4]: 5 (5=80-100% damage)
- PRE Application SOLNI herbicidal damage (five point scale) (Solanum nigrum (SOLNI) [5]): 5 (5=80-100% damage)
- PRE Application ALOMY herbicidal damage (five point scale) [6]: 5 (5=80-100% damage)
- PRE Application SETFA herbicidal damage (five point scale) (Setaria faberi (SETFA) [7]): 5 (5=80-100% damage)
- POST Application SOLNI herbicidal damage (five point scale) (Solanum nigrum (SOLNI) [8]): 5 (5=80-100% damage)
- POST Application ECHCG herbicidal damage (five point scale) [9]: 5 (5=80-100% damage)
- POST Application ALOMY herbicidal damage (five point scale) [10]: 5 (5=80-100% damage)
- POST Application IPOHE herbicidal damage (five point scale) [11]: 5 (5=80-100% damage)
- POST Application AMARE herbicidal damage (five point scale) [12]: 5 (5=80-100% damage)

SMILES: CS(=O)(=O)c1ccc(-c2cn[nH]c(=O)c2O)c(Cl)c1C1=NOCC1 [Compound 2.055]
- PRE Application IPOHE herbicidal damage (five point scale) [1]: 1 (1=0-19% damage)
- PRE Application AMARE herbicidal damage (five point scale) [2]: 4 (4=60-79% damage)
- POST Application SETFA herbicidal damage (five point scale) (Setaria faberi (SETFA) [3]): 5 (5=80-100% damage)
- PRE Application ECHCG herbicidal damage (five point scale) [4]: 2 (2=20-39% damage)
- PRE Application SOLNI herbicidal damage (five point scale) (Solanum nigrum (SOLNI) [5]): 2 (2=20-39% damage)
- PRE Application ALOMY herbicidal damage (five point scale) [6]: 2 (2=20-39% damage)
- PRE Application SETFA herbicidal damage (five point scale) (Setaria faberi (SETFA) [7]): 1 (1=0-19% damage)
- POST Application SOLNI herbicidal damage (five point scale) (Solanum nigrum (SOLNI) [8]): 5 (5=80-100% damage)
- POST Application ECHCG herbicidal damage (five point scale) [9]: 5 (5=80-100% damage)
- POST Application ALOMY herbicidal damage (five point scale) [10]: 3 (3=40-59% damage)
- POST Application IPOHE herbicidal damage (five point scale) [11]: 3 (3=40-59% damage)
- POST Application AMARE herbicidal damage (five point scale) [12]: 5 (5=80-100% damage)

SMILES: Cn1nc(O)c(-c2ccc(C(F)(F)F)cc2S(C)(=O)=O)c(O)c1=O [Compound 2.056]
- PRE Application IPOHE herbicidal damage (five point scale) [1]: 3 (3=40-59% damage)
- PRE Application AMARE herbicidal damage (five point scale) [2]: 5 (5=80-100% damage)
- POST Application SETFA herbicidal damage (five point scale) (Setaria faberi (SETFA) [3]): 5 (5=80-100% damage)
- PRE Application ECHCG herbicidal damage (five point scale) [4]: 5 (5=80-100% damage)
- PRE Application SOLNI herbicidal damage (five point scale) (Solanum nigrum (SOLNI) [5]): 5 (5=80-100% damage)
- PRE Application ALOMY herbicidal damage (five point scale) [6]: 4 (4=60-79% damage)
- PRE Application SETFA herbicidal damage (five point scale) (Setaria faberi (SETFA) [7]): 5 (5=80-100% damage)
- POST Application SOLNI herbicidal damage (five point scale) (Solanum nigrum (SOLNI) [8]): 5 (5=80-100% damage)
- POST Application ECHCG herbicidal damage (five point scale) [9]: 5 (5=80-100% damage)
- POST Application ALOMY herbicidal damage (five point scale) [10]: 5 (5=80-100% damage)
- POST Application IPOHE herbicidal damage (five point scale) [11]: 5 (5=80-100% damage)
- POST Application AMARE herbicidal damage (five point scale) [12]: 5 (5=80-100% damage)

SMILES: CC(=O)Oc1c(-c2ccc(C(F)(F)F)cc2S(C)(=O)=O)cnn(C)c1=O [Compound 3.001, [2-methyl-5-[2-methylsulfonyl-4-(trifluoromethyl)phenyl]-3-oxo-pyridazin-4-yl]acetate]
- PRE Application IPOHE herbicidal damage (five point scale) [1]: 5 (5=80-100% damage)
- PRE Application AMARE herbicidal damage (five point scale) [2]: 5 (5=80-100% damage)
- POST Application SETFA herbicidal damage (five point scale) (Setaria faberi (SETFA) [3]): 5 (5=80-100% damage)
- PRE Application ECHCG herbicidal damage (five point scale) [4]: 5 (5=80-100% damage)
- PRE Application SOLNI herbicidal damage (five point scale) (Solanum nigrum (SOLNI) [5]): 5 (5=80-100% damage)
- PRE Application ALOMY herbicidal damage (five point scale) [6]: 5 (5=80-100% damage)
- PRE Application SETFA herbicidal damage (five point scale) (Setaria faberi (SETFA) [7]): 5 (5=80-100% damage)
- POST Application SOLNI herbicidal damage (five point scale) (Solanum nigrum (SOLNI) [8]): 5 (5=80-100% damage)
- POST Application ECHCG herbicidal damage (five point scale) [9]: 5 (5=80-100% damage)
- POST Application ALOMY herbicidal damage (five point scale) [10]: 5 (5=80-100% damage)
- POST Application IPOHE herbicidal damage (five point scale) [11]: 5 (5=80-100% damage)
- POST Application AMARE herbicidal damage (five point scale) [12]: 5 (5=80-100% damage)

SMILES: Cn1ncc(-c2ccc(C(F)(F)F)cc2S(C)(=O)=O)c(OC(=O)c2ccccc2)c1=O [Compound 3.002]
- PRE Application IPOHE herbicidal damage (five point scale) [1]: 5 (5=80-100% damage)
- PRE Application AMARE herbicidal damage (five point scale) [2]: 5 (5=80-100% damage)
- POST Application SETFA herbicidal damage (five point scale) (Setaria faberi (SETFA) [3]): 5 (5=80-100% damage)
- PRE Application ECHCG herbicidal damage (five point scale) [4]: 5 (5=80-100% damage)
- PRE Application SOLNI herbicidal damage (five point scale) (Solanum nigrum (SOLNI) [5]): 5 (5=80-100% damage)
- PRE Application ALOMY herbicidal damage (five point scale) [6]: 5 (5=80-100% damage)
- PRE Application SETFA herbicidal damage (five point scale) (Setaria faberi (SETFA) [7]): 5 (5=80-100% damage)
- POST Application SOLNI herbicidal damage (five point scale) (Solanum nigrum (SOLNI) [8]): 5 (5=80-100% damage)
- POST Application ECHCG herbicidal damage (five point scale) [9]: 5 (5=80-100% damage)
- POST Application ALOMY herbicidal damage (five point scale) [10]: 5 (5=80-100% damage)
- POST Application IPOHE herbicidal damage (five point scale) [11]: 5 (5=80-100% damage)
- POST Application AMARE herbicidal damage (five point scale) [12]: 5 (5=80-100% damage)

SMILES: COC(=O)Oc1c(-c2ccc(C(F)(F)F)cc2S(C)(=O)=O)cnn(C)c1=O [Compound 3.003, Methyl [2-methyl-5-[2-methylsulfonyl-4-(trifluoromethyl)phenyl]-3-oxo-pyridazin-4-yl]carbonate]
- PRE Application IPOHE herbicidal damage (five point scale) [1]: 5 (5=80-100% damage)
- PRE Application AMARE herbicidal damage (five point scale) [2]: 5 (5=80-100% damage)
- POST Application SETFA herbicidal damage (five point scale) (Setaria faberi (SETFA) [3]): 5 (5=80-100% damage)
- PRE Application ECHCG herbicidal damage (five point scale) [4]: 5 (5=80-100% damage)
- PRE Application SOLNI herbicidal damage (five point scale) (Solanum nigrum (SOLNI) [5]): 5 (5=80-100% damage)
- PRE Application ALOMY herbicidal damage (five point scale) [6]: 5 (5=80-100% damage)
- PRE Application SETFA herbicidal damage (five point scale) (Setaria faberi (SETFA) [7]): 5 (5=80-100% damage)
- POST Application SOLNI herbicidal damage (five point scale) (Solanum nigrum (SOLNI) [8]): 5 (5=80-100% damage)
- POST Application ECHCG herbicidal damage (five point scale) [9]: 5 (5=80-100% damage)
- POST Application ALOMY herbicidal damage (five point scale) [10]: 5 (5=80-100% damage)
- POST Application IPOHE herbicidal damage (five point scale) [11]: 5 (5=80-100% damage)
- POST Application AMARE herbicidal damage (five point scale) [12]: 5 (5=80-100% damage)

SMILES: CCSC(=O)Oc1c(-c2ccc(C(F)(F)F)cc2S(C)(=O)=O)cnn(C)c1=O [Compound 3.004, [2-methyl-5-[2-methylsulfonyl-4-(trifluoromethyl)phenyl]-3-oxo-pyridazin-4-yl]ethylsulfanylformate]
- PRE Application IPOHE herbicidal damage (five point scale) [1]: 5 (5=80-100% damage)
- PRE Application AMARE herbicidal damage (five point scale) [2]: 5 (5=80-100% damage)
- POST Application SETFA herbicidal damage (five point scale) (Setaria faberi (SETFA) [3]): 5 (5=80-100% damage)
- PRE Application ECHCG herbicidal damage (five point scale) [4]: 5 (5=80-100% damage)
- PRE Application SOLNI herbicidal damage (five point scale) (Solanum nigrum (SOLNI) [5]): 5 (5=80-100% damage)
- PRE Application ALOMY herbicidal damage (five point scale) [6]: 5 (5=80-100% damage)
- PRE Application SETFA herbicidal damage (five point scale) (Setaria faberi (SETFA) [7]): 5 (5=80-100% damage)
- POST Application SOLNI herbicidal damage (five point scale) (Solanum nigrum (SOLNI) [8]): 5 (5=80-100% damage)
- POST Application ECHCG herbicidal damage (five point scale) [9]: 5 (5=80-100% damage)
- POST Application ALOMY herbicidal damage (five point scale) [10]: 5 (5=80-100% damage)
- POST Application IPOHE herbicidal damage (five point scale) [11]: 5 (5=80-100% damage)
- POST Application AMARE herbicidal damage (five point scale) [12]: 5 (5=80-100% damage)
